SMILES strings stand for the structures. Counter-ions that a name gives are not always drawn.

A short description of the data set: Oil-water partition ratio. It is filed as physicochemical. To be noted: 0.05% by mass aqueous solution vs oil phase soybean oil:MCT 1:1, 25° C. The method, then: 5 g of an oil phase (soybean oil:medium-chain fatty acid triglyceride=1:1) was added to 5 g of a 0.05% by mass aqueous levobupivacaine hydrochloride solution, and the mixture was stirred with a vortex mixer for 1 minute. After that, the whole was transferred to a centrifugation tube and centrifuged at 3600 rpm at 25° C. for 10 minutes, and the aqueous phase was separated. The levobupivacaine concentration of the aqueous phase was measured by HPLC, and the oil-water partition ratio was determined.

As to `CCCCN1CCCC[C@H]1C(=O)Nc1c(C)cccc1C` [levobupivacaine hydrochloride, (2S)-1-butyl-N-(2,6-dimethylphenyl)piperidine-2-carboxamide], the “proportion present in the aqueous phase (oil-water partition ratio)” value stood at 94.3%.

These data come from patent publication US20200030305A1, “LOCAL ANESTHETIC-CONTAINING ACIDIC EMULSION COMPOSITION” (Maruishi Pharmaceutical Co., Ltd., priority 2017, published 2020).
